Structures are written as SMILES.

For this experiment, the system named is E. coli and Staphylococcus aureus cells. In words: Scanning electron microscope analysis of bacterial membrane. In kind it is cell-based, Escherichia coli. As to conditions: at MIC, 37° C., 1 hour. The protocol: In order to confirm whether the synthetic peptides of the present invention prepared by the method of above 1 would damage the bacterial cell membrane, it was investigated through a scanning electron microscope.
As a control, a strain not treated with peptide was used. After incubation, the cells were recovered, treated with 2.5% glutaraldehyde at 4° C. for 18 hours, and washed twice with PBS buffer solution. The fixed cells were dehydrated for 10 minutes using 100% ethanol and diluted ethanol (50%, 70%, 90% and 100%) in sequential order, and then the samples were dried and coated with platinum, followed by observation through a low vacuum scanning electron microscope.

With `CC[C@H](C)[C@H](NC(=O)CN)C(=O)NCC(=O)N[C@@H](C)C(=O)N[C@H](C(=O)N[C@@H](CC(C)C)C(=O)N[C@@H](CCCCN)C(=O)N[C@H](C(=O)N[C@@H](CC(C)C)C(=O)N[C@H](C(=O)N[C@H](C(=O)NCC(=O)N[C@@H](CC(C)C)C(=O)N1CCC[C@H]1C(=O)N[C@@H](C)C(=O)N[C@@H](CC(C)C)C(=O)N[C@H](C(=O)N[C@@H](CO)C(=O)N[C@@H](Cc1c[nH]c2ccccc12)C(=O)N[C@H](C(=O)N[C@@H](CCCCN)C(=O)N[C@@H](CCCNC(=N)N)C(=O)N[C@@H](CCCCN)C(=O)N[C@@H](CCCNC(=N)N)C(=O)N[C@@H](CCC(N)=O)C(=O)N[C@@H](CCC(N)=O)C(N)=O)[C@@H](C)CC)[C@@H](C)CC)[C@@H](C)O)[C@@H](C)O)C(C)C)C(C)C` [Melittin, reference compound], the “bacterial cell membrane damage by SEM” value is “significant membrane damage”.
